Data: publication PMC3949714 (PLoS ONE, 2014)
Read-outs that look alike come from different tables or passages of the source. Where no end group is shown, it is not given here.

What was measured:
[1] = biological target: T1, mu-opioid receptors (MOR) (Mus musculus, UniProt P42866); assay: cell-based; assay type: cell-based, murine
T1 construct: FLAG; expressed in transfected cells

[2] = biological target: T2, delta-opioid receptors (DOR); assay type: cell-based; conditions: read-out: IC50 for the inhibition of forskolin induced cAMP in HEK-DOP cells
T2 construct: expressed in transfected cells

[3] = RP-HPLC retention time (read by the paper as polarity); assay type: physicochemical; conditions: water/acetonitrile gradient with 0.1% formic acid, MS TIC detection
Experimental: An Agilent binary HPLC composing of an Agilent 1100 LC pump, an Agilent 1100 well plate auto-sampler (Agilent Technologies, Santa Clara, CA, USA) and a Jupiter 5 μ (C4, 300 A, 150×2.00 mm, 5 μ) RP HPLC column (Phenomenex, Torrance, CA, USA) were used for separation. The mobile phase flow rate was 200 µl/min and the volume of injection was 20 µL. The separations were performed using a binary solvent gradient; water (Milli-Q; Millipore Corporation, Bedford, MA) which contained 0.1% v/v formic acid was used as the solvent A and acetonitrile (Merck KGaA, Darmstadt, Germany) which contained 0.1% v/v formic acid (Nuplex industries Pty Ltd. (NSW, Australia) was used as the solvent B. The chromatographic separation was achieved using the gradient shown in Table 1.
An API 3000 tandem mass spectrometer equipped with a turbo ion spray was used as the detector. Detection was performed in total ion current (TIC) mode (MS1/Q1), in positive mode, within the range 200–3000 amu. The data were acquired and processed by Analyst 1.5 software (Applied Biosystems, Foster city, CA, USA). Mass spectra were obtained using: declustering potential (DF) of 16 V, focusing potential (FP) of 120 V, Entrance potential (EP) of 10 V, and Ion spray voltage (IS) of 5000 V. Structure identity of fragments was performed using the respective mass/charge (m/z) values of each peptide metabolite. Direct flow injections were carried out using Model 11 plus Harvard Syringe pump (Harvard Apparatus Inc, Holliston, MA, USA).

[4] = Biotransformation in homogenised inflamed tissue at pH 5.5 (LC/MS, mean residence time); conditions: for MRT: 120 min, AUMC/AUC of LC/MS peak intensity
[5] = incubation of BE 1-31, Jupiter C4 300 A column, 200 µl/min
[6] = incubation of BE 1-31 (115 µM) in rat inflamed tissue homogenate, MES pH 5.5, 37°C
[7] = incubation of BE 1-17, Jupiter C4 column
[8] = incubation of BE 1-17 (115 µM) in rat inflamed tissue homogenate, MES pH 5.5, 37°C
[9] = rat inflamed tissue homogenate, MES pH 5.5, 37°C, 115 µM peptide, LC/MS
[10] = incubation of BE 1-13, Jupiter C4 column
[11] = incubation of BE 1-13 (115 µM) in rat inflamed tissue homogenate, MES pH 5.5, 37°C
[12] = formed during incubation of BE 1–31, pH 5.5, 37°C

T1 sequence (P42866 whole entry): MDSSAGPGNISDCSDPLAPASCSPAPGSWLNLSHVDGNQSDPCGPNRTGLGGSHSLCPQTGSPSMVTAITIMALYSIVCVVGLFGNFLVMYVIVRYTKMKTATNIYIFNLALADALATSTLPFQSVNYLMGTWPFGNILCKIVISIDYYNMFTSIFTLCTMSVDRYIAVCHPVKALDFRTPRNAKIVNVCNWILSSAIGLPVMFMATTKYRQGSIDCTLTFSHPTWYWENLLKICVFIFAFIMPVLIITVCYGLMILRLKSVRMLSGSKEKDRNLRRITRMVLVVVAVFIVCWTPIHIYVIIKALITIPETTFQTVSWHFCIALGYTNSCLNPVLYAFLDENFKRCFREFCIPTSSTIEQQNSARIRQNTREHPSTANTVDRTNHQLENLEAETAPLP

| Compound | RT [3, 5] | MRT [4, 6] | RT [3, 7] | MRT [4, 8] | also measured |
| --- | --- | --- | --- | --- | --- |
| YGGFMTSEKSQTPLVTLFKN [BE 1–20] | 25.2 min | 34.2 |  |  | Effect of naloxone pre-treatment on cAMP inhibition through MOR [1]: inhibited by naloxone; IC50 ([1]; read-out: IC50 for the inhibition of forskolin induced cAMP in HEK-MOP cells): 0.005 µM; IC50 [2]: 0.055 µM |
| YGGFMTSEKSQTPLVTLFKNAIIKNVHKKGQ [BE 1–31, Beta-endorphin] | 25.8 min | 2.9 |  |  | Effect of naloxone pre-treatment on cAMP inhibition through MOR [1]: inhibited by naloxone; IC50 [1]: 0.024 µM; IC50 [2]: 0.057 µM; Peak intensity observed (remaining) at 15 min ([4]; rat inflamed paw tissue homogenate (1 g/10 ml MES buffer) pH 5.5, 37°C, 115 µM peptide, LC/MS): 7.5% |
| YGGFMTSEKSQTPLVTL [BE 1–17] | 24.5 min | 25 | 24.5 min | 5.6 | Effect of naloxone pre-treatment on cAMP inhibition through MOR [1]: inhibited by naloxone; IC50 [2]: 0.025 µM; RT ([3]; incubation of BE 1-17, Jupiter C4 column, listed as BE 1-17): 24.3 min; Incubation period after which the peptide was undetectable [4, 9]: 15 min |
| YGGFMTSEK [BE 1–9] | 20.2 min | 11.4 | 18.13 min | 28 | Agonist character at MOR (extent of cAMP inhibition) [1]: partial agonist |
| YGGFMTSEKSQ [BE 1–11] | 19.96 min | 57.8 | 17.58 min | 17.2 | Effect of naloxone pre-treatment on cAMP inhibition through MOR [1]: inhibited by naloxone; IC50 [2]: 0.018 µM; Rt ([3]; incubation of BE 1-11, Jupiter C4 column): 17.4 min; Rt [3, 10]: 17.4 min; MRT ([4]; incubation of BE 1-11 (115 µM) in rat inflamed tissue homogenate, MES pH 5.5, 37°C): 11; MRT [4, 11]: 10.5; Incubation period after which the peptide was undetectable [4, 9]: 30 min |
| C=CCN1C[C@H](C)N([C@H](c2ccc(C(=O)N(CC)CC)cc2)c2cccc(OC)c2)C[C@H]1C [SNC 80, 4-[(R)-[(2S,5R)-4-allyl-2,5-dimethylpiperazin-1-yl](3-methoxyphenyl)methyl]-N,N-diethylbenzamide, reference compound] |  |  |  |  | IC50 ([1]; Table 2 as titled, 20000 cells/well, FSK 100 µM, 0.3 nM to 1 µM in half log intervals, 30 min, Alphascreen, one-site fit, at least three independent experiments, read-out: IC50 for the inhibition of forskolin induced cAMP in HEK-MOP cells): 0.0081 µM |
| BE 4-13: beta-endorphin fragment, residues 4-13 (FMTSEKSQTP; Beta-endorphin; UniProt P01189 240-249, looked up, fragment) |  |  | 15.67 min |  | Rt [3, 10]: 15.7 min; MRT [4, 11]: 18 |
| BE 5-16: beta-endorphin fragment, residues 5-16 (MTSEKSQTPLVT; Beta-endorphin; UniProt P01189 241-252, looked up, fragment) |  |  | 16.92 min | 13.2 |  |
| BE 10-28: beta-endorphin fragment, residues 10-28 (SQTPLVTLFKNAIIKNAYK; Beta-endorphin; UniProt P01189 246-264, looked up, fragment) | 26.9 min | 32.3 |  |  |  |
| BE 18-31: beta-endorphin fragment, residues 18-31 (FKNAIIKNAYKKGE; Beta-endorphin; UniProt P01189 254-267, looked up, fragment) | 16.1 min | 18.1 |  |  |  |
| BE 20-28: beta-endorphin intermediate fragment, residues 20-28 (NAIIKNAYK; Beta-endorphin; UniProt P01189 256-264, looked up, fragment) | 16.1 min | 87.6 |  |  |  |
| YGGFMTSEKSQTP [BE 1–13] | 20.9 min | 44 | 18.6 min | 21.7 | Effect of naloxone pre-treatment on cAMP inhibition through MOR [1]: inhibited by naloxone; IC50 [2]: 0.059 µM; Rt [3, 10]: 18.4 min; Rt ([3]; incubation of BE 1-13, Jupiter C4 column, listed as BE 1-13): 18.5 min; RT ([3]; incubation of BE 1-17, Jupiter C4 column, listed as BE 1-13): 18.78 min; Time present as metabolite within inflamed tissue homogenates [4, 12]: over 1 hour; MRT [4, 11]: 8.3; Time for which the peptide was detected in inflamed tissue homogenates [4, 9]: 30 min |
| BE 10-18: beta-endorphin fragment, residues 10-18 (SQTPLVTLF; Beta-endorphin; UniProt P01189 246-254, looked up, fragment) | 28.2 min | 13.3 |  |  |  |
| BE 1-15: beta-endorphin N-terminal fragment, residues 1-15 (YGGFMTSEKSQTPLV; Beta-endorphin; UniProt P01189 237-251, looked up, fragment) | 24.2 min | 12 | 22.33 min | 8.3 |  |
| BE 10-31: beta-endorphin fragment, residues 10-31 (SQTPLVTLFKNAIIKNAYKKGE; Beta-endorphin; UniProt P01189 246-267, looked up, fragment) | 24.9 min | 29 |  |  |  |
| BE 6-31: beta-endorphin fragment, residues 6-31 (TSEKSQTPLVTLFKNAIIKNAYKKGE; Beta-endorphin; UniProt P01189 242-267, looked up, fragment) | 24.7 min | 40 |  |  |  |
| BE 3-17: beta-endorphin fragment, residues 3-17 (GFMTSEKSQTPLVTL; Beta-endorphin; UniProt P01189 239-253, looked up, fragment) |  |  | 24 min | 6.2 |  |
| BE 10-16: beta-endorphin intermediate fragment, residues 10-16 (SQTPLVT; Beta-endorphin; UniProt P01189 246-252, looked up, fragment) | 19 min | 44.3 |  |  | Time observed as metabolite in homogenised inflamed tissue [4, 12]: over 60 minutes |
| BE 2-14: beta-endorphin fragment, residues 2-14 (GGFMTSEKSQTPL; Beta-endorphin; UniProt P01189 238-250, looked up, fragment) | 22.2 min | 25.1 | 20.1 min | 18.9 |  |
| BE 2-17: des-tyrosine beta-endorphin fragment, residues 2-17 (GGFMTSEKSQTPLVTL; Beta-endorphin; UniProt P01189 238-253, looked up, fragment) |  |  | 24 min | 7.45 |  |
